Test results as given in patent publication US7994185B2, “Benzene sulfonamide thiazole and oxazole compounds” (Glaxo Smith Kline LLC, priority 2008, dated 2011).
pIC50: −log10 of the molar value. Structures can show the parent of a compound that is named as a salt. Where two headings read alike, the source gives them in different places.

Legend:
[1] = tested on: Human melanoma cancer cells (SK-MEL-28); assay: Cell growth inhibition assay (CellTiter-Glo), SK-MEL-28; type: cell-based
[2] = target: T1, BRAFV600E full-length (amino acids 2-766) (Homo sapiens, UniProt P15056, V600E); assay: B-Raf Accelerated MEK ATPase assay (BRAMA); type: biochemical; details: categorized; for IC50: Table 1b, read-out: B-Raf pIC50 (converted)
T1 construct: His6-tagged BRAFV600E full-length (amino acids 2-766); His6; made in house; host or cells: baculovirus expression system (insect cells)
T1 sequence (P15056 2-766 V600E): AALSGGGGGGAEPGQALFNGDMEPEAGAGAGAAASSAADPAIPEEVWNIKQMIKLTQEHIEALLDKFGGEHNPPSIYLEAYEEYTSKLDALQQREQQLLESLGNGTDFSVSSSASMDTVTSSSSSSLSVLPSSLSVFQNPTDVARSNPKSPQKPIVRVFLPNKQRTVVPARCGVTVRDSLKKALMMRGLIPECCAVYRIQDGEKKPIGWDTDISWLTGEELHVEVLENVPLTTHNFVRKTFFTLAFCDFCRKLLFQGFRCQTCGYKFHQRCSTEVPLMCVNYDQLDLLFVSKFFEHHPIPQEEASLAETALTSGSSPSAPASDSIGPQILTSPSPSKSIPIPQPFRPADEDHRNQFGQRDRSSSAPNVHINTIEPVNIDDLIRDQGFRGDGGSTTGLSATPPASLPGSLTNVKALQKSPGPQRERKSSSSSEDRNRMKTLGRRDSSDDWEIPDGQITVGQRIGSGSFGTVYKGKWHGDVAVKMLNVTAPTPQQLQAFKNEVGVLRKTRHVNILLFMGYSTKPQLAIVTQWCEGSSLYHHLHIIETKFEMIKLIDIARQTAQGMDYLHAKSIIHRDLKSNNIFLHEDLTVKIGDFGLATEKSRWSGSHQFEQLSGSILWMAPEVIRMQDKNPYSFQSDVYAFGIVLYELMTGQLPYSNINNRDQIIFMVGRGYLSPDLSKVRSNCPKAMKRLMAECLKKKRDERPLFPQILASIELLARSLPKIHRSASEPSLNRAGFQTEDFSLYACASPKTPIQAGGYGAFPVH
Outline: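 Coupled-enzyme readout: ADP generated by MEK-mediated ATP hydrolysis, uncoupled from ERK phosphorylation, is linked to NADH oxidation through pyruvate kinase and lactate dehydrogenase.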

[3] = tested on: Human colon tumor cells (Colo205); assay: Cell growth inhibition assay (CellTiter-Glo), Colo205; type: cell-based
Outline: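 Colo205 (and SK-MEL-28) cells in RPMI with 10% FBS were exposed to 10-point 1:3 serial dilutions of compound at 0.2% final DMSO for 3 days at 37 °C. Total ATP, a surrogate for cell number, was read by CellTiter-Glo luminescence, with % growth inhibition relative to DMSO-treated wells.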

[4] = SK-MEL-28, 72 h, Table 3a, 3 days incubation, read-out: Activity in SK-MEL-28 Tumor Cells
[5] = SK-MEL-28, Table 3b, later runs, average for the one or more runs, categorized, read-out: IC50 for SK-MEL-28
[6] = B-Raf Activity, Table 1a, highest pIC50 for the one or more runs
[7] = later runs, average pIC50 for the one or more runs
[8] = COLO 205, 72 h, Table 2a, 3 days incubation, read-out: Activity in Colo205 Tumor Cells
[9] = COLO 205, Table 2b, later runs, average for the one or more runs, categorized, read-out: IC50 for Colo205
[10] = B-Raf pIC50, Table 1b, later runs, average pIC50 for the one or more runs

Structure (SMILES) | pIC50 [1, 4] | pIC50 [1, 5] | pIC50 [2, 6] | IC50 [2, 7] [nM] | pIC50 [3, 8] | pIC50 [3, 9] | pIC50 [2, 10]
CC(C)CNc1nccc(-c2sc(N3CCOCC3)nc2-c2cccc(NS(=O)(=O)c3cc(F)ccc3F)c2Cl)n1 [Example 22, N-{2-Chloro-3-[5-{2-[(2-methylpropyl)amino]-4-pyrimidinyl}-2-(4-morpholinyl)-1,3-thiazol-4-yl]phenyl}-2,5-difluorobenzenesulfonamide] | > 7.00 | > 7.00 | > 7.00 | 3.16 to 31.6 | > 7.00 | > 7.00 | –
CC(C)(C)c1nc(-c2cccc(NS(=O)(=O)c3cc(F)ccc3F)c2F)c(-c2ccnc(NCCNS(C)(=O)=O)n2)s1 [Example 199] | > 7.00 | > 7.00 | > 7.00 | – | > 7.00 | > 7.00 | ≥ 8.50
Nc1nccc(-c2sc(N3CCOCC3)nc2-c2cccc(NS(=O)(=O)c3cccnc3)c2F)n1 [Example 61, N-{3-[5-(2-Amino-4-pyrimidinyl)-2-(4-morpholinyl)-1,3-thiazol-4-yl]-2-fluorophenyl}-3-pyridinesulfonamide] | 6.00 to 7.00 | 6.00 to 7.00 | > 7.00 | – | 6.00 to 7.00 | 6.00 to 7.00 | ≥ 8.50
Nc1nccc(-c2sc(C3CCCCC3)nc2-c2cccc(NS(=O)(=O)c3c(F)cccc3F)c2F)n1 [Example 104, N-{3-[5-(2-Amino-4-pyrimidinyl)-2-cyclohexyl-1,3-thiazol-4-yl]-2-fluorophenyl}-2,6-difluorobenzenesulfonamide] | > 7.00 | > 7.00 | > 7.00 | – | > 7.00 | > 7.00 | ≥ 8.50
CC(C)c1nc(-c2ccc(F)c(NS(=O)(=O)c3c(F)cccc3F)c2)c(-c2ccnc(NCCOCCO)n2)s1 [Example 166] | 6.00 to 7.00 | 6.00 to 7.00 | – | – | 6.00 to 7.00 | 6.00 to 7.00 | 6.00 to 7.50
CC(C)c1nc(-c2ccc(F)c(NS(=O)(=O)c3ccco3)c2)c(-c2ccnc(NCCCS(C)(=O)=O)n2)s1 [Example 148] | < 6.00 | 5.00 to 6.00 | > 7.00 | 3.16 to 31.6 | < 6.00 | 5.00 to 6.00 | –
O=S(=O)(Nc1cccc(-c2nc(N3CCOCC3)sc2-c2ccnc(NCC3CCCO3)n2)c1F)c1cc(F)ccc1F (centres unmarked) [Example 209] | > 7.00 | > 7.00 | > 7.00 | – | > 7.00 | > 7.00 | ≥ 8.50
COc1ccc(F)cc1S(=O)(=O)Nc1cccc(-c2nc(C(C)C)sc2-c2ccnc(NC3CCN(S(C)(=O)=O)CC3)n2)c1F [Example 153] | > 7.00 | > 7.00 | > 7.00 | 3.16 to 31.6 | > 7.00 | > 7.00 | –
O=S(=O)(Nc1cccc(-c2nc(C3CCOCC3)sc2-c2ccncn2)c1F)c1cc(F)ccc1F [Example 244, 2,5-difluoro-N-{2-fluoro-3-[5-(4-pyrimidinyl)-2-(tetrahydro-2H-pyran-4-yl)-1,3-thiazol-4-yl]phenyl}benzenesulfonamide] | – | > 7.00 | – | – | – | > 7.00 | ≥ 8.50
O=S(=O)(Nc1cccc(-c2nc(N3CCOCC3)sc2-c2ccnc(NCCO)n2)c1F)c1cc(F)ccc1F [Example 208] | > 7.00 | > 7.00 | > 7.00 | – | > 7.00 | > 7.00 | ≥ 8.50
Nc1nccc(-c2sc(N3CCOCC3)nc2-c2cccc(NS(=O)(=O)N3CCOCC3)c2F)n1 [Example 50, N-{3-[5-(2-Amino-4-pyrimidinyl)-2-(4-morpholinyl)-1,3-thiazol-4-yl]-2-fluorophenyl}-4-morpholinesulfonamide] | < 6.00 | 5.00 to 6.00 | 6.00 to 7.00 | – | < 6.00 | 5.00 to 6.00 | 6.00 to 7.50
CC(C)c1nc(-c2cccc(NS(=O)(=O)c3c(F)cccc3F)c2F)c(-c2ccnc(N)n2)s1 [Example 60, N-{3-[5-(2-Amino-4-pyrimidinyl)-2-(1-methylethyl)-1,3-thiazol-4-yl]-2-fluorophenyl}-2,6-difluorobenzenesulfonamide] | > 7.00 | > 7.00 | > 7.00 | – | > 7.00 | > 7.00 | ≥ 8.50
CC(C)(C)c1nc(-c2cccc(NS(=O)(=O)c3cc(F)ccc3F)c2F)c(-c2ccnc(NCCN3CCCC3=O)n2)s1 [Example 97, N-{3-[2-(1,1-Dimethylethyl)-5-(2-{[2-(2-oxo-1-pyrrolidinyl)ethyl]amino}-4-pyrimidinyl)-1,3-thiazol-4-yl]-2-fluorophenyl}-2,5-difluorobenzenesulfonamide] | > 7.00 | > 7.00 | > 7.00 | – | > 7.00 | 6.00 to 7.00 | ≥ 8.50
CC(C)CNc1nccc(-c2sc(N3CCOCC3)nc2-c2cccc(NS(=O)(=O)c3cccnc3)c2F)n1 [Example 45, N-{2-Fluoro-3-[5-{2-[(2-methylpropyl)amino]-4-pyrimidinyl}-2-(4-morpholinyl)-1,3-thiazol-4-yl]phenyl}-3-pyridinesulfonamide] | 6.00 to 7.00 | 6.00 to 7.00 | > 7.00 | – | 6.00 to 7.00 | 6.00 to 7.00 | ≥ 8.50
COc1ccc(F)cc1S(=O)(=O)Nc1cccc(-c2nc(C(C)C)sc2-c2ccnc(NCC(C)C)n2)c1 [Example 38, 5-Fluoro-N-[3-(2-(1-methylethyl)-5-{2-[(2-methylpropyl)amino]-4-pyrimidinyl}-1,3-thiazol-4-yl)phenyl]-2-(methyloxy)benzenesulfonamide] | < 6.00 | 5.00 to 6.00 | 6.00 to 7.00 | – | < 6.00 | 5.00 to 6.00 | 6.00 to 7.50
CC(C)(C)c1nc(-c2cccc(NS(=O)(=O)c3ccsc3)c2F)c(-c2ccnc(N)n2)s1 [Example 233, N-{3-[5-(2-amino-4-pyrimidinyl)-2-(1,1-dimethylethyl)-1,3-thiazol-4-yl]-2-fluorophenyl}-3-thiophenesulfonamide] | – | > 7.00 | – | – | – | > 7.00 | ≥ 8.50
Cc1nccc(-c2sc(C(C)(C)C)nc2-c2cccc(NS(=O)(=O)c3cc(F)ccc3F)c2Cl)n1 [Example 229, N-{2-chloro-3-[2-(1,1-dimethylethyl)-5-(2-methyl-4-pyrimidinyl)-1,3-thiazol-4-yl]phenyl}-2,5-difluorobenzenesulfonamide] | – | > 7.00 | – | 3.16 to 31.6 | – | > 7.00 | –
Nc1nccc(-c2sc(C3CCOCC3)nc2-c2ccc(F)c(NS(=O)(=O)c3cc(F)ccc3F)c2)n1 [Example 68, N-{5-[5-(2-Amino-4-pyrimidinyl)-2-(tetrahydro-2H-pyran-4-yl)-1,3-thiazol-4-yl]-2-fluorophenyl}-2,5-difluorobenzenesulfonamide] | < 6.00 | 5.00 to 6.00 | 6.00 to 7.00 | – | < 6.00 | 5.00 to 6.00 | 6.00 to 7.50
CC(C)c1nc(-c2ccc(F)c(NS(=O)(=O)C3CC3)c2)c(-c2ccnc(NCCS(C)(=O)=O)n2)s1 [Example 55, N-{2-fluoro-5-[2-(1-methylethyl)-5-(2-{[2-(methylsulfonyl)ethyl]amino}-4-pyrimidinyl)-1,3-thiazol-4-yl]phenyl}cyclopropanesulfonamide] | < 6.00 | 5.00 to 6.00 | 6.00 to 7.00 | – | 6.00 to 7.00 | 6.00 to 7.00 | 6.00 to 7.50
CC(C)CNc1nccc(-c2sc(C3CCOCC3)nc2-c2ccc(F)c(NS(=O)(=O)c3cc(F)ccc3F)c2)n1 [Example 69, 2,5-Difluoro-N-{2-fluoro-5-[5-{2-[(2-methylpropyl)amino]-4-pyrimidinyl}-2-(tetrahydro-2H-pyran-4-yl)-1,3-thiazol-4-yl]phenyl}benzenesulfonamide] | 6.00 to 7.00 | 6.00 to 7.00 | > 7.00 | – | 6.00 to 7.00 | 6.00 to 7.00 | ≥ 8.50
CC(C)(C)c1nc(-c2cccc(NS(=O)(=O)c3cc(F)ccc3F)c2F)c(-c2ccnc(NCCCN3CCCC3=O)n2)s1 [Example 96, N-{3-[2-(1,1-Dimethylethyl)-5-(2-{[3-(2-oxo-1-pyrrolidinyl)propyl]amino}-4-pyrimidinyl)-1,3-thiazol-4-yl]-2-fluorophenyl}-2,5-difluorobenzenesulfonamide] | > 7.00 | > 7.00 | > 7.00 | – | > 7.00 | > 7.00 | ≥ 8.50
Cn1ccc(S(=O)(=O)Nc2cccc(-c3nc(C(C)(C)C)sc3-c3ccnc(N)n3)c2F)c1 [Example 284, N-{3-[5-(2-amino-4-pyrimidinyl)-2-(1,1-dimethylethyl)-1,3-thiazol-4-yl]-2-fluorophenyl}-1-methyl-1H-pyrrole-3-sulfonamide hydrochloride] | – | 6.00 to 7.00 | – | – | – | 6.00 to 7.00 | 6.00 to 7.50
CC(C)(O)CCc1nccc(-c2sc(C(C)(C)C)nc2-c2cccc(NS(=O)(=O)c3cc(F)ccc3F)c2F)n1 [Example 250, N-(3-{2-(1,1-dimethylethyl)-5-[2-(3-hydroxy-3-methylbutyl)-4-pyrimidinyl]-1,3-thiazol-4-yl}-2-fluorophenyl)-2,5-difluorobenzenesulfonamide] | – | 6.00 to 7.00 | – | 3.16 to 31.6 | – | > 7.00 | –
